Like-named read-outs stand apart in the source and are kept apart here.
Assays:
[1] = Induced degradation of 5-azacytidine in liquid state (HPLC); type: physicochemical; conditions: liquid state, Table 9
Procedure: (§1) The HPLC measurements were performed using a system equipped with an Inertsil C18 column (ODS-2, 5 microns, 250×4.6 mm (ODS-167)). Other parameters of the system were as follows: • Detection: UV detector operated on 242 nm • Column temperature: 20° C. • Run time: 45 minutes • Injection volume: 10 μl • Flow rate: 1.0 ml/minute • Sample set temperature: 5° C. • Sample concentration: about 1.65 mg/ml • Diluent: Mixture of 30% 10 mM ammonium acetate and 70% THF
(§2) Analyses were performed using the following mobile phase • Mobile Phase (Eluent) A: 10 mM ammonium acetate • Mobile Phase (Eluent) B: 60% 10 mM ammonium acetate, 40% MeOH
Acidic hydrolysis—blank preparation: Hydrochloric acid (5 ml, 0.01M HCl) was diluted to 10 ml with the diluent. […] An aliquot (5 ml) was diluted to 10 ml with the diluent. The blank preparation and sample preparation were injected to the HPLC system by using the chromatographic conditions as mentioned in example 8. • Basic hydrolysis—blank preparation: Sodium hydroxide (5 ml, 0.01M NaOH) was diluted to 10 ml with the diluent. […] An aliquot (5 ml) was diluted to 10 ml with diluent. […] An aliquot (5 ml) was diluted to 10 ml with the diluent. The blank and sample preparations were injected to the HPLC system using the chromatographic conditions as detailed in example 8. • Photolysis—blank preparation: The diluent (50 ml) was mixed under UV light for 48 hours. […] The blank preparation and sample preparation were injected to the HPLC system using the chromatographic conditions as mentioned in example 8.

[2] = Solution stability of 5-azacytidine in the HPLC diluent; type: physicochemical; conditions: for Area (%) at RRT 1.00 (5-azacytidine) / Area (%) of peak at RRT 0.63 / Area (%) of peak at RRT 2.01 / Area (%) of peak at RRT 2.05 / Total impurities by % area: HPLC diluent, about 1.65 mg/ml
Procedure: as §1, §2

[3] = cited from earlier work

Nc1ncn([C@@H]2O[C@H](CO)[C@@H](O)[C@H]2O)c(=O)n1 [5-azacytidine, 4-amino-1-β-D-ribofuranosyl-1,3,5-s-triazine-2(1H)-one]
Degradation in liquid state (HPLC analysis) [1]: significant degradation
Area (%) at RRT 1.00 (5-azacytidine) ([2]; 0 hours): 96.72%
Area (%) of peak at RRT 0.63 ([2]; 0 hours): 1.55%
Area (%) of peak at RRT 2.01 ([2]; 0 hours): 1.37%
Area (%) of peak at RRT 2.05 ([2]; 0 hours): 0.24%
Total impurities by % area ([2]; 0 hours): 3.28%
Area (%) at RRT 1.00 (5-azacytidine) ([2]; 4 hours): 96.21%
Area (%) of peak at RRT 0.63 ([2]; 4 hours): 2.04%
Area (%) of peak at RRT 2.01 ([2]; 4 hours): 1.41%
Area (%) of peak at RRT 2.05 ([2]; 4 hours): 0.24%
Total impurities by % area ([2]; 4 hours): 3.79%
Area (%) at RRT 1.00 (5-azacytidine) ([2]; 5 hours): 96.11%
Area (%) of peak at RRT 0.63 ([2]; 5 hours): 2.16%
Area (%) of peak at RRT 2.01 ([2]; 5 hours): 1.37%
Area (%) of peak at RRT 2.05 ([2]; 5 hours): 0.24%
Total impurities by % area ([2]; 5 hours): 3.89%
Area (%) at RRT 1.00 (5-azacytidine) ([2]; 6 hours): 96.00%
Area (%) of peak at RRT 0.63 ([2]; 6 hours): 2.30%
Area (%) of peak at RRT 2.01 ([2]; 6 hours): 1.36%
Area (%) of peak at RRT 2.05 ([2]; 6 hours): 0.24%
Total impurities by % area ([2]; 6 hours): 4.00%
Area (%) at RRT 1.00 (5-azacytidine) ([2]; 7 hours): 95.85%
Area (%) of peak at RRT 0.63 ([2]; 7 hours): 2.43%
Area (%) of peak at RRT 2.01 ([2]; 7 hours): 1.37%
Area (%) of peak at RRT 2.05 ([2]; 7 hours): 0.23%
Total impurities by % area ([2]; 7 hours): 4.15%
Area (%) at RRT 1.00 (5-azacytidine) ([2]; 8 hours): 95.74%
Area (%) of peak at RRT 0.63 ([2]; 8 hours): 2.55%
Area (%) of peak at RRT 2.01 ([2]; 8 hours): 1.37%
Area (%) of peak at RRT 2.05 ([2]; 8 hours): 0.24%
Total impurities by % area ([2]; 8 hours): 4.26%
Area (%) at RRT 1.00 (5-azacytidine) ([2]; 9 hours): 95.63%
Area (%) of peak at RRT 0.63 ([2]; 9 hours): 2.66%
Area (%) of peak at RRT 2.01 ([2]; 9 hours): 1.37%
Area (%) of peak at RRT 2.05 ([2]; 9 hours): 0.24%
Total impurities by % area ([2]; 9 hours): 4.37%
Area (%) at RRT 1.00 (5-azacytidine) ([2]; 10 hours): 95.50%
Area (%) of peak at RRT 0.63 ([2]; 10 hours): 2.77%
Area (%) of peak at RRT 2.01 ([2]; 10 hours): 1.37%
Area (%) of peak at RRT 2.05 ([2]; 10 hours): 0.24%
Total impurities by % area ([2]; 10 hours): 4.50%
Area (%) at RRT 1.00 (5-azacytidine) ([2]; 11 hours): 95.40%
Area (%) of peak at RRT 0.63 ([2]; 11 hours): 2.87%
Area (%) of peak at RRT 2.01 ([2]; 11 hours): 1.37%
Area (%) of peak at RRT 2.05 ([2]; 11 hours): 0.24%
Total impurities by % area ([2]; 11 hours): 4.60%
Solution stability in HPLC diluent ([2]; dissolved in the HPLC diluent): stable within the average time period needed to complete the HPLC method
Solubility ([3]; in 5% Tween 80 in water): sparingly soluble
Solubility ([3]; in 5% dextrose in water): sparingly soluble
Solubility ([3]; in N-methyl-2-pyrrolidone): sparingly soluble
Solubility ([3]; in acetone): insoluble
Solubility ([3]; in dimethylsulfoxide (DMSO)): soluble
Solubility ([3]; in ethanol/water (50/50)): slightly soluble
Solubility ([3]; in ethanol): insoluble
Solubility ([3]; in methyl ethyl ketone): insoluble
Solubility ([3]; in normal saline): sparingly soluble
Solubility ([3]; in polyethylene glycol): slightly soluble
Solubility ([3]; in propylene glycol): slightly soluble
Solubility ([3]; in water saturated octanol): sparingly soluble
Solubility ([3]; in water): sparingly soluble
